The supplement of paper PMC11451515

Tested on: NOMO1
Assay: cell viability relative to DMSO control; higher = less cytotoxic
Details: 48 h
In short: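 Viability, reported as a per-plate percentage of DMSO wells with cell-free wells as background, came from CellTiter-Glo One luminescence. Reading took place after 48 h at 37°C. Before that, NOMO1 or SEM (500 cells/well) or P12-Ichikawa (1000 cells/well) leukemia cells, adapted for at least four passages in each medium, were seeded in 1536-well plates (5 μl) and pin-dosed with library compounds in DMSO, 47 μM to 0.79 nM over 11 threefold points.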

[1] = HPLM + 10% dialyzed FBS, 0.000781 µM
[2] = HPLM + 10% dialyzed FBS, 0.00234 µM
[3] = HPLM + 10% dialyzed FBS, 0.00702 µM
[4] = HPLM + 10% dialyzed FBS, 0.0211 µM
[5] = HPLM + 10% dialyzed FBS, 0.0632 µM
[6] = HPLM + 10% dialyzed FBS, 0.19 µM
[7] = HPLM + 10% dialyzed FBS, 0.569 µM
[8] = HPLM + 10% dialyzed FBS, 1.71 µM
[9] = HPLM + 10% dialyzed FBS, 5.12 µM
[10] = HPLM + 10% dialyzed FBS, 15.4 µM
[11] = HPLM + 10% dialyzed FBS, 46.1 µM
[12] = RPMI 5 mM glucose + 10% FBS, 0.000781 µM
[13] = RPMI 5 mM glucose + 10% FBS, 0.00234 µM
[14] = RPMI 5 mM glucose + 10% FBS, 0.00702 µM
[15] = RPMI 5 mM glucose + 10% FBS, 0.0211 µM
[16] = RPMI 5 mM glucose + 10% FBS, 0.0632 µM
[17] = RPMI 5 mM glucose + 10% FBS, 0.19 µM
[18] = RPMI 5 mM glucose + 10% FBS, 0.569 µM
[19] = RPMI 5 mM glucose + 10% FBS, 1.71 µM
[20] = RPMI 5 mM glucose + 10% FBS, 5.12 µM
[21] = RPMI 5 mM glucose + 10% FBS, 15.4 µM
[22] = RPMI 5 mM glucose + 10% FBS, 46.1 µM
[23] = RPMI 5 mM glucose + 10% dialyzed FBS, 0.000781 µM
[24] = RPMI 5 mM glucose + 10% dialyzed FBS, 0.00234 µM
[25] = RPMI 5 mM glucose + 10% dialyzed FBS, 0.00702 µM
[26] = RPMI 5 mM glucose + 10% dialyzed FBS, 0.0211 µM
[27] = RPMI 5 mM glucose + 10% dialyzed FBS, 0.0632 µM
[28] = RPMI 5 mM glucose + 10% dialyzed FBS, 0.19 µM
[29] = RPMI 5 mM glucose + 10% dialyzed FBS, 0.569 µM
[30] = RPMI 5 mM glucose + 10% dialyzed FBS, 1.71 µM
[31] = RPMI 5 mM glucose + 10% dialyzed FBS, 5.12 µM
[32] = RPMI 5 mM glucose + 10% dialyzed FBS, 15.4 µM
[33] = RPMI 5 mM glucose + 10% dialyzed FBS, 46.1 µM

Row | Structure (SMILES) | cell viability [1] | cell viability [2] | cell viability [3] | cell viability [4] | cell viability [5] | cell viability [6] | cell viability [7] | cell viability [8] | cell viability [9] | cell viability [10] | cell viability [11] | cell viability [12] | cell viability [13] | cell viability [14] | cell viability [15] | cell viability [16] | cell viability [17] | cell viability [18] | cell viability [19] | cell viability [20] | cell viability [21] | cell viability [22] | cell viability [23] | cell viability [24] | cell viability [25] | cell viability [26] | cell viability [27] | cell viability [28] | cell viability [29] | cell viability [30] | cell viability [31] | cell viability [32] | cell viability [33]
1 | C[N+](C)(C)CC(=O)O.[Cl-] | 63.1% | 90.5% | 85% | 94.9% | 94.4% | 86.3% | 95.6% | 89.5% | 104% | 86.5% | 93.9% | 77.1% | 86% | 80.4% | 81.6% | 85.5% | 87.6% | 87.8% | 80.3% | 83.2% | 84.2% | 81.1% | 68.8% | 88.1% | 79.7% | 89.3% | 90.8% | 89.1% | 92.3% | 91.5% | 83.8% | 92% | 84.7%
2 | OC(CCN1CCCCC1)(C2CC\3CC2\C=C3)C4=CC=CC=C4 (centres undefined) | 125% | 119% | 125% | 123% | 140% | 133% | 138% | 144% | 136% | 117% | 94.2% | – | – | – | – | – | – | – | – | – | – | – | – | – | – | – | – | – | – | – | – | – | –
3 | O=[S+]([O-])(CCSSCC[S+](=O)([O-])[O][Na])[O][Na] | 110% | 104% | 132% | 124% | 120% | 112% | 133% | 125% | 135% | 129% | 141% | 107% | 115% | 125% | 119% | 127% | 123% | 125% | 129% | 147% | 130% | 142% | 107% | 112% | 126% | 130% | 121% | 122% | 125% | 139% | 134% | 144% | 127%
4 | CCCNCC(O)COc1ccccc1C(=O)CCc1ccccc1 (centres undefined) | 82.6% | 117% | 113% | 106% | 121% | 120% | 123% | 112% | 124% | 114% | 96.9% | 23.6% | 106% | 106% | 117% | 111% | 109% | 111% | 122% | 124% | 111% | 107% | 108% | 98.5% | 124% | 122% | 124% | 111% | 111% | 121% | 118% | 119% | 103%
5 | Cc1cc(SCc2sc(-c3ccc(C(F)(F)F)cc3)nc2C)ccc1OCC(=O)O | 102% | 113% | 97.5% | 124% | 109% | 110% | 104% | 92.3% | 102% | 94.8% | 78.1% | 100% | 97.1% | 85.9% | 99.1% | 90.3% | 95% | 90.7% | 102% | 86.6% | 91.4% | 81.9% | 93.2% | 95.1% | 101% | 108% | 92.2% | 102% | 99.6% | 97.7% | 101% | 89.2% | 83.1%
6 | O=C(O)CCNc1cc(N2CCc3ccccc3CC2)nc(-c2ccccn2)n1 | 111% | 133% | 115% | 138% | 140% | 123% | 111% | 116% | 117% | 94.5% | 75.9% | 121% | 105% | 107% | 111% | 104% | 128% | 115% | 106% | 116% | 105% | 92.9% | 121% | 123% | 124% | 128% | 127% | 121% | 136% | 111% | 117% | 97.3% | 96.1%
7 | Cc1ccc(NC(=O)c2cccc(N(C)C)c2)cc1NC(=O)c1ccc(O)cc1 | 127% | 119% | 115% | 121% | 151% | 136% | 146% | 122% | 120% | 136% | 105% | 114% | 110% | 107% | 108% | 113% | 109% | 121% | 118% | 118% | 121% | 106% | 110% | 114% | 115% | 121% | 116% | 110% | 116% | 126% | 138% | 108% | 107%
8 | Cn1cc(-c2cnn3c(N)c(Br)c([C@@H]4CCCNC4)nc23)cn1 | 99.8% | 107% | 111% | 102% | 101% | 99% | 93.2% | 47.7% | 21.8% | 15.8% | 27.6% | 99.7% | 88% | 88.8% | 85.2% | 89.7% | 89.3% | 84.2% | 60.3% | 16.4% | 11.3% | 12.8% | 78.7% | 93.1% | 84.1% | 98.2% | 95.3% | 92.5% | 81.2% | 33.4% | 20.1% | 16.5% | 19%
9 | COCCCOc1ccnc(C[S+]([O-])c2nc3ccccc3[nH]2)c1C (centres undefined) | 92.5% | 116% | 113% | 123% | 123% | 122% | 116% | 127% | 130% | 119% | 117% | 126% | 118% | 110% | 109% | 131% | 124% | 105% | 126% | 115% | 118% | 124% | 108% | 114% | 119% | 120% | 133% | 119% | 119% | 121% | 120% | 115% | 129%
10 | C[C@H]1C[C@H]2[C@@H]3CCC4=CC(=O)C=C[C@]4(C)[C@H]3C(=O)C[C@]2(C)[C@@]1(O)C(=O)CO | 89.9% | 80.3% | 81.2% | 103% | 86.3% | 109% | 98.9% | 96% | 86.8% | 99.8% | 83% | 82.7% | 90.2% | 86.9% | 91.6% | 80.8% | 79.9% | 81.3% | 83.8% | 86.5% | 86.3% | 92.2% | 83% | 78.4% | 77.9% | 56.5% | 78.8% | 82.4% | 99.8% | 85.1% | 94.4% | 78% | 93.2%
11 | O=C(O)c1ccc(-c2c[nH]c3ncc(-c4ccccc4)cc23)cc1C1CCCC1 | 114% | 120% | 121% | 130% | 134% | 134% | 131% | 138% | 126% | 134% | 110% | 118% | 108% | 131% | 123% | 127% | 123% | 130% | 132% | 113% | 115% | 117% | 108% | 127% | 112% | 133% | 137% | 126% | 125% | 132% | 120% | 105% | 119%
12 | CO[C@H]1/C=C/O[C@@]2(C)Oc3c(C)c(O)c4c(O)c(c(/C=N/N5CCN(C)CC5)c(O)c4c3C2=O)NC(=O)/C(C)=C\C=C\[C@H](C)[C@H](O)[C@@H](C)[C@@H](O)[C@@H](C)[C@H](OC(C)=O)[C@@H]1C | – | – | – | – | – | – | – | – | – | – | – | 111% | 123% | 117% | 127% | 129% | 118% | 125% | 123% | 111% | 102% | 98.5% | 118% | 119% | 129% | 115% | 122% | 117% | 104% | 112% | 119% | 96.1% | 79.6%
13 | CN1CC/C(CC1)=C3\c4ccccc4CC(=O)c2sccc23 | 120% | 125% | 114% | 121% | 130% | 128% | 153% | 135% | 110% | 112% | 105% | 120% | 123% | 136% | 135% | 136% | 134% | 156% | 131% | 142% | 151% | 128% | – | – | – | – | – | – | – | – | – | – | –
14 | COc1nccc(-c2c(-c3ccc(F)cc3)ncn2C2CCC(O)CC2)n1 (centres undefined) | 120% | 123% | 121% | 123% | 132% | 121% | 111% | 122% | 112% | 119% | 51.3% | 107% | 109% | 120% | 115% | 111% | 112% | 103% | 100% | 98.4% | 100% | 35.9% | 122% | 114% | 126% | 109% | 116% | 118% | 105% | 118% | 111% | 107% | 74.3%
15 | CC1(C)Cc2c(sc(NC(=S)NC(=O)c3ccccc3)c2C(=O)O)CO1 | 102% | 107% | 100% | 117% | 120% | 114% | 115% | 112% | 114% | 94.5% | 95.1% | 115% | 111% | 105% | 101% | 105% | 96.6% | 118% | 106% | 115% | 101% | 91.5% | 87.7% | 102% | 96.3% | 108% | 109% | 103% | 121% | 109% | 101% | 101% | 102%
16 | Oc1cc2c(cc1O)C1c3ccc(O)c(O)c3OCC1(O)C2 (centres undefined) | 95.1% | 89.1% | 104% | 93.5% | 111% | 107% | 102% | 115% | 111% | 105% | 110% | 102% | 92.3% | 101% | 102% | 91.9% | 96.6% | 97.7% | 94.9% | 106% | 92.2% | 93.9% | 77.6% | 87.2% | 104% | 97.2% | 99% | 106% | 107% | 110% | 103% | 103% | 102%
